The source of these data is publication PMC9825896, “Discovery of an L‐like Configuration for 3’‐Fluoro‐5’‐norcarbonucleoside Phosphonates as Potent Anti‐HIV Agents” (Chemmedchem, 2022).

Like-named read-outs stand apart in the source and are kept apart here.

The test system of data set [1] is HIV‐1 LAI strain. The experiment in a line: Anti-HIV-1 LAI activity in PHA-P activated PBMC (RT activity in supernatants). The class given is cell-based. Particulars: for EC50: read-out: EC50, effective concentration of drug required to reduce viral replication by 50 %. On the procedure: (§1) Peripheral blood mononuclear cells (PBMC) from healthy donors were isolated and stimulated for 3 days with […] of phytohemagglutinin‐P (PHA‐P, Sigma) and 5 IU/mL of recombinant human interleukin‐2 (rHuIL‐2, Roche). PBMC were growth under CO2 in a humid atmosphere at 37 °C in RPMI‐1640 GlutaMAX medium supplemented with antibiotics (penicillin, streptomycin, neomycin), 10 % fetal calf serum (FCS, previously inactivated by heat) and 10 UI/mL of rHuIL‐2. The HIV‐1 LAI strain was previously described.[19] Resistant viral strains are from the NIH AIDS Research & Reference Reagent Program (HIV‐1–52534‐2, HIV‐1–56252‐1, HIV‐1–71361‐1, and HIV‐1–7324‐1) carry mutations in RT.[16]
(§2) PHA‐P activated PBMCs (1.5×10^5 cells) were pre‐treated for 30 min by increasing concentrations of the various compounds to be tested and then infected with […] infectious tissue culture doses 50 % (TCID50) of the HIV‐1‐LAI. Supernatants were collected at day 7 post infection and stored at ‐ 20 °C. Viral replication was measured by quantifying reverse transcriptase activity in cell culture supernatants by the use of Lenti kit RT (Cavidi). Cytotoxicity of the compounds was evaluated in uninfected PHA‐P PBMC by MTT assay (Promega) on day 7. Experiments were performed in triplicate and repeated with another blood donors. Data analyses were performed using SoftMax® Pro 4.6 software (Molecular Devices). Percent of inhibition of RT activity or cell viability were plotted versus compound concentration and fitted with quadratic curves to determine 50 % effective concentration (EC50) and 50 % cytotoxic concentration (CC50). The viral resistant strains were amplified and the viral stocks titrated using cells of the H9 line.[20] More specifically, with regard to the antiviral test, the cells were distributed in the wells of 96‐well microplates at the rate of 50,000 cells per well. They were then pretreated for 30 minutes with increasing concentrations of the various compounds to be tested and then infected with 125 TCID50 of the various resistant strains. Seven and 14 days after infection, culture supernatants were collected and frozen at −20 ° C until measurement of viral replication via quantification of the enzymatic activity of the TI. The EC50 was calculated as previously described. A possible cytotoxicity of the molecules towards the cells of the H9 line was assessed by microscopic observation throughout the cell cultures.

Data set [2] relates to human peripheral blood mononuclear cells (PBMC). The data set is described as follows: Cytotoxicity in uninfected PHA-P PBMC by MTT assay. In kind it is cell-based. How it is done: as §1, §2
A general note: Tetrazolium dyes change colour on reduction, which living cells bring about.

Data set [3] can be described thus: Cytotoxicity in uninfected PHA-P PBMC by MTT assay. In kind it is cell-based, human. Particulars: human. How it is done:
as §1, §2

A further data set deals with HIV‐1‐52534‐2. The data set is described as follows: Anti-HIV-1 activity in T CD4+ H9 cells, resistant strain 52534-2. Particulars: strain 52534‐2, T CD4+ H9 cells; for EC50: Human immunodeficiency virus 1, mean from three experiments. The class given is cell-based. On the procedure: as §1, §2
A further data set deals with HIV‐1‐56252‐1. The experiment in a line: Anti-HIV-1 activity in T CD4+ H9 cells, resistant strain 56252-1. In kind it is cell-based. Particulars: Human immunodeficiency virus 1; strain 56252‐1, T CD4+ H9 cells, mean from three experiments. How it is done:
as §1, §2

Another data set relates to HIV‐1‐7324‐1. The experiment in a line: Anti-HIV-1 activity in T CD4+ H9 cells, resistant strain 7324-1. The class given is cell-based. Particulars: Human immunodeficiency virus 1; strain 7324‐1, T CD4+ H9 cells, mean from three experiments. On the procedure: as §1, §2
The subject of another data set is HIV‐1‐71361‐1. The experiment in a line: Anti-HIV-1 activity in T CD4+ H9 cells, resistant strain 71361-1. In kind it is cell-based. Particulars: Human immunodeficiency virus 1, H9. How it is done:
as §1, §2

The subject of another data set is HIV‐1 LAI. The data set is described as follows: Anti-HIV-1 activity in T CD4+ H9 cells, LAI reference strain. The class given is cell-based. Conditions: Human immunodeficiency virus 1, mean from three experiments. On the procedure:
as §1, §2

Data set [4] relates to HIV‐1 LAI strain. Particulars: ref 4b, cited from earlier work; for EC50: read-out: EC50, effective concentration of drug required to reduce viral replication by 50 %, HIV-1 LAI in human PBMC; for SI = CC50/EC50: HIV-1 LAI in PBMC.
For data set [5], the system named is human peripheral blood mononuclear cells (PBMC). Further details: method as in earlier work. Particulars: ref 4b, cited from earlier work; for CC50: read-out: CC50, cytotoxic concentration of drug required to reduce cell growth by 50 %.
The mark [6] stands for this setting: Human immunodeficiency virus 1, 168 h, HIV-1 LAI in human PBMC, day 7 post infection, mean from 3 blood donors.
Setting [7] is: uninfected PBMC, MTT, day 7, mean from 3 blood donors, read-out: CC50, cytotoxic concentration of drug required to reduce cell growth by 50 %.
The mark [8] stands for this setting: Human immunodeficiency virus 1, PBMC, 168 h.

Turning to `Nc1ncnc2c1ncn2[C@H]1C=C(F)[C@@H](OCP(=O)(O)O)C1` [(+)‐1], the “SI = CC50/EC50” value in the data set with HIV‐1 LAI strain [1] (HIV-1 LAI in PBMC) is reported as at least 2.32. Also, the EC50 in the data set on HIV‐1 LAI strain [1] (setting [6]) amounted to 4300 nM. Moreover, in data set [2] (PBMC), the “cytotoxicity (in words)” value is recorded as “No cytotoxicity”. The CC50 at 7 days in data set [3] (setting [7]) was at least 10000 nM.

As for `CC(C)(C)C(=O)OCOP(=O)(CO[C@H]1C[C@@H](n2cnc3c(N)ncnc32)C=C1F)OCOC(=O)C(C)(C)C` [(+)‐9, bis‐(Pivaloyloxymethyl)‐((1’S,4’R)‐4‐(6‐amino‐9H‐purin‐9‐yl)‐2‐fluorocyclopent‐2‐en‐1‐yl)oxymethyl‐phosphonate], the EC50 in the data set on HIV‐1‐52534‐2 is at least 10000 nM; in the data set with HIV‐1 LAI strain [1] (setting [8]), 510 nM; in the data set on HIV‐1‐56252‐1, 960 nM; in the data set on HIV‐1‐7324‐1 it was 240 nM; in the data set on HIV‐1‐71361‐1, 680 nM; in the data set on HIV‐1 LAI, 1850 nM. For the same compound, the CC50 at 7 days in data set [3] is at least 10000 nM.

As for `Nc1ncnc2c1ncn2[C@H]1C=C(F)[C@@H](OCP(=O)(O)O)C1` (racemic) [(±)‐1], the EC50 with HIV‐1 LAI strain [4] is 880 nM; with HIV‐1‐52534‐2 it was at least 10000 nM; in the data set with HIV‐1‐56252‐1 it was 10000 nM; in the data set on HIV‐1‐7324‐1, 170 nM; with HIV‐1‐71361‐1, 3730 nM; in the data set on HIV‐1 LAI, 660 nM. In addition, the CC50 in [5] is at least 10000 nM. Moreover, the “cytotoxicity (in words)” value in data set [5] is recorded as “without additional cytotoxicity”.

With `Nc1ncnc2c1ncn2[C@@H]1C=C(F)[C@H](OCP(=O)(O)O)C1` [(−)‐1], the EC50 was at least 10000 nM with HIV‐1‐52534‐2; 190 nM in the data set on HIV‐1 LAI strain [1] (setting [6]); 690 nM in the data set on HIV‐1‐56252‐1; 420 nM with HIV‐1‐7324‐1; 900 nM with HIV‐1‐71361‐1; 330 nM with HIV‐1 LAI. Moreover, in the data set with HIV‐1 LAI strain [1] (HIV-1 LAI in PBMC), the “SI = CC50/EC50” value is listed as at least 52.6. Besides, in data set [2] (PBMC), the “cytotoxicity (in words)” value is “No cytotoxicity”. Further, the CC50 at 7 days in data set [3] (setting [7]) was at least 10000 nM.

On to `C[C@H](Cn1cnc2c(N)ncnc21)OCP(=O)(O)O` [(R)‐PMPA, reference compound], for which the “SI = CC50/EC50” value in the data set with HIV‐1 LAI strain [4] is at least 9.1; in the data set on HIV‐1 LAI strain [4] (listed as Tenofovir), 9.1. Also, the EC50 with HIV‐1 LAI strain [4] was 1100 nM; with HIV‐1‐52534‐2, 6100 nM; in the data set on HIV‐1‐56252‐1, 1650 nM; in the data set with HIV‐1‐7324‐1, 100 nM; in the data set with HIV‐1‐71361‐1 it was 100 nM; in the data set with HIV‐1 LAI it was 130 nM. The CC50 in [5] is at least 10000 nM.

Turning to `CC(C)(C)C(=O)OCOP(=O)(CO[C@@H]1C[C@H](n2cnc3c(N)ncnc32)C=C1F)OCOC(=O)C(C)(C)C` [(−)‐9, bis‐(Pivaloyloxymethyl)‐((1’R,4’S)‐4‐(6‐amino‐9H‐purin‐9‐yl)‐2‐fluorocyclopent‐2‐en‐1‐yl)oxymethyl‐phosphonate], the EC50 with HIV‐1‐52534‐2 came out at 580 nM; in the data set on HIV‐1 LAI strain [1] (setting [8]), 63 nM; in the data set with HIV‐1‐56252‐1 it was 90 nM; with HIV‐1‐7324‐1, 10 nM; with HIV‐1‐71361‐1 it was 110 nM; in the data set on HIV‐1 LAI it was 110 nM. Also, the “antiviral activity (in words)” value with HIV‐1‐52534‐2 is “remains significantly active”. The “anti‐HIV‐1 activity, fold greater than that of the D‐like enantiomer” value in the data set on HIV‐1 LAI strain [1] (HIV-1 LAI in PBMC, EC50 ratio versus D-like bis(POM) prodrug) amounted to 8 fold. In addition, the “anti‐HIV‐1 activity, fold greater than Tenofovir” value in the data set with HIV‐1 LAI strain [1] (HIV-1 LAI in PBMC, EC50 ratio versus Tenofovir) was found to be 17 fold. In addition, the “cytotoxicity (in words)” value in [2] is given as “some cytotoxicity”. This compound came in with a CC50 at 7 days in [3] of 5200 nM.
